Data reported in US20250144095A1, “COMPOSITIONS AND METHODS FOR TREATMENT OF CONNECTIVE TISSUE DISORDERS” (The Johns Hopkins University, priority 2022, published 2025).

How the values were obtained:
Assay type in all cases: in vivo
Col3a1^G938D mice = test: Survival drug trial in Col3a1^G938D/+ (vEDS) mice, Kaplan-Meier
Excerpt: All mice were maintained on a C57BL/6J background (#000664, The Jackson Laboratory). ET1^fl/fl f mice were obtained from RIKEN (RBRC06322). Tie2-Cre mice and Sm22-Cre mice were obtained from the Jackson Laboratory (#004128. #017491). All mice were genotyped according to published protocols.
Restriction enzymes were used to detect the presence or absence of the Col3a1 mutation as previously described. The G938D mutation leads to the gain of a BamHI cut site (R3136S, New England Biolabs). All mice found dead were assessed for cause of death by necropsy, noting in particular hemothorax and hemoperitoneum.
For drug trials in the Col3a1^G938D/+ mice, mice were initiated on medication at weaning and continued until 2 months of age. Cobimetinib (GDC-0973/RO551404, Active Biochem) was dissolved in drinking water and filtered to reach a final concentration of 0.02 g/L giving an estimated dose of 2 mg/kg/day. Ruboxistaurin (LY333531 HCl, Selleck Chemicals) was mixed with powdered food (LabDiet) to give a concentration of 0.1 mg/g giving an estimated dose of 8 mg/kg/day. […]
By design, each treatment trial included contemporaneous control (untreated) mice. […] All p-values calculated by log-rank comparisons (using Prism) are reported as unadjusted p-values, given the interdependence of many of the drug mechanisms. […]

p-PKC = test: Western blot of p-PKC in proximal descending thoracic aorta of treated Col3a1^G938D mice; conditions: normalized to β-actin, vs untreated
Protocol: (§1) Protein was extracted using an automatic bead homogenizer in conjunction with a Protein Extraction Kit (Full Moon Biosystems). All protein lysis buffers contained both PhosSTOP and cOmplete™, Mini, EDTA-free Protease Inhibitor Cocktail (Roche). Western blotting was performed using LI-COR buffer and species appropriate secondary antibodies conjugated to IR-dye700 or IRdye-800 (LI-COR Biosciences), according to the manufacturer's guidelines and analyzed using LI-COR Odyssey. The following primary antibodies were used: anti-β-Actin (8H10D10) (Cell Signaling Technology, 3700), anti-phospho ERK1/2 (Cell Signaling Technology, 4370), anti-PKCβ (phospho S660) (Abcam, 75837), anti-Endothelin-1 (TR.ET.48.5) (Thermo Fisher Scientific, MA3005), anti-Endothelin-1 (TR.ET.48.5) (Abcam, 2786).
(§2) pERK and pPKC amounts were normalized to j-actin as opposed to total ERK or total PKC for a variety of practical reasons. First, it is the amount of phosphorylated protein, and not the ratio of phosphorylated to unphosphorylated protein, that drives cellular responses. Second, we are unaware of any pathophysiologic context where the amount of unphosphorylated protein is limiting (i.e. always in excess). […]

p-ERK1/2 = test: Western blot of p-ERK1/2 in proximal descending thoracic aorta of treated Col3a1^G938D mice; conditions: normalized to β-actin, vs untreated
Protocol: as §1, §2

Endothelin-1 = test: Immunofluorescence of Endothelin-1 in descending thoracic aorta of treated Col3a1^G938D/+ mice; conditions: descending thoracic aorta of 8-week-old Col3a1^G938D/+ mice, treated from weaning; cobimetinib est. 2 mg/kg/day, ruboxistaurin est. 8 mg/kg/day
Protocol: Mice were euthanized by isoflurane inhalation and the left common iliac artery was transected to allow for drainage. PBS (pH 7.4) and PBS containing 4% paraformaldehyde (PFA) was flushed through the left ventricle. The heart and thoracic aorta were removed en bloc and fixed in 4% PFA overnight at 4° C. Aortas were submitted for paraffin fixation and longitudinal sections 5 micrometers thick were mounted on glass slides and stained with hematoxylin & eosin (HE), Verhoeff-van Giesen (VVG), Masson's Trichrome, or Picrosirius red (PSR). Slides were imaged at 20× and 40× magnification using a Nikon Eclipse E400 microscope. Collagen content was determined by polarized PSR intensity (31) and elastin breaks were counted by a researcher blinded to genotype and treatment arm using only VVG stained sections where elastin breaks were clearly visualized.
For immunofluorescence, slides were incubated in antigen retrieval solution for 1 minute in a pressure cooker. Sections were incubated with 1% BSA for one hour at room temperature. Primary antibodies were diluted at 1:200 in 1% BSA and incubated overnight at 4° C. Three consecutive washes were performed prior to incubation with anti-rabbit secondary antibodies conjugated to Alexa Fluor 488 (Invitrogen A-11039) or anti-mouse secondary antibodies conjugated to Alexa Fluor 594 (Invitrogen R37119) at 1:200 for 1 hour at room temperature. […]

**Q.** Which results are given for COc1ccccc1Oc1c(NS(=O)(=O)c2ccc(C(C)(C)C)cc2)nc(-c2ncccn2)nc1OCCO [bosentan, Bosentan]?
**A.** effect on survival (in words) (Col3a1^G938D mice; Col3a1^G938D/+ mice vs untreated, Log-Rank (Mantel-Cox)): moderately but significantly improved survival; mice surviving to the end of the trial (Col3a1^G938D mice; vEDS (Col3a1^G938D) mice, drug from weaning (P21), followed 45 days, in food, estimated 100 mg/kg/day, untreated 46%): 70%; p-PKC level in aorta (in words) (p-PKC): marked downregulation; p-ERK1/2 level in aorta (in words) (p-ERK1/2): not p-ERK1/2

**Q.** With O=C(c1ccc(F)c(F)c1Nc1ccc(I)cc1F)N1CC(O)([C@@H]2CCCCN2)C1 [cobimetinib, Cobimetinib] as the molecule, how does the “ET1 protein levels in aorta (in words)” value (Endothelin-1) read?
**A.** Its value is “attenuated”.

**Q.** Which “ET1 protein levels in aorta (in words)” value (Endothelin-1) does the source give for CN(C)C[C@@H]1CCn2cc(c3ccccc32)C2=C(C(=O)NC2=O)c2cn(c3ccccc23)CCO1 [ruboxistaurin, Ruboxistaurin] here?
**A.** The value was “attenuated”.
